Data: US20250032465A1, “METHODS OF TREATING CNS DISORDERS” (HANGZHOU HIGHLIGHTLL PHARMACEUTICAL CO., LTD, priority 2021, published 2025)
“Also recorded” adds a separate entry of the source. Like-named read-outs stand apart in the source and are kept apart here.

Key:
[1] = biological target: T1, TYK2 (Homo sapiens, UniProt P29597); experiment: TYK2 cellular ELISA assay using NK92 cells (IL-12 and IL-18 stimulated IFNγ excretion); type: cell-based; conditions: IL-12 2 ng/ml, IL-18 5 ng/ml, 24 hours
T1 construct: purchased Reaction Biology Corp, Malvern, PA (contract testing)
Procedure: This testing was performed to test cellular TYK2 activity using IL-12 and IL-18 stimulated IFNγ excretion assay in NK92 cells. The testing was performed according to the following procedure: 1) Replace NK92 cell media containing IL-2 with media not containing IL-2, maintain overnight; 2) Plate NK92 cells to 96-well plate at density of ˜150,000 cell/well; 3) Add different concentrations of test article to wells, maintain in incubator at 37° C. and 5% CO2 for 1 hour; 4) Add IL-12 (final concentration: 2 ng/ml) and IL-18 (final concentration: 5 ng/ml) to stimulate for 24 hours in the above incubator; 5) After 24 hours, centrifuge at 2000 rpm for 5 min, take the supernatant and analyze according to instructions of the ELISA kit. In this assay, compounds of Formulae (II) and (III) had IC50<100 nM.

[2] = test system: MOG35-55-EAE model; experiment: MOG35-55 induced experimental autoimmune encephalomyelitis (MOG35-55-EAE) model; type: in vivo, female C57BL/6 mice
Source text: MOG-EAE is one of the most common and widely used animal models for multiple sclerosis, which is a chronic inflammatory disease in the central nervous system that is characterized by axon demyelination and degeneration. In this mouse model, animals were immunized with myelin oligodendrocyte glycoprotein (MOG) peptide in Complete Freund's Adjuvant (CFA) firstly and then boosted with Pertussis Toxin. Upon immunization, mice developed chronic inflammation in the central nervous system, which led to axon dysfunction, and associated movement disabilities and paralysis. The disease onset usually starts from Day 10 and lasts for 20-30 days. This model allows specific investigation of the neuroinflammatory signaling pathways and evaluation of the efficacy of novel anti-inflammatory therapies. […] Mortality and observed clinical signs were recorded for individual animals in detail. Body weight and disease activity index (DAI) were measured twice per week after disease induction and then every other day starting from Day 10 to the study end. The DAI was scored according to the scoring criteria: 0=normal; 1=loss of tail tone; 2=loss of tail tone and hind limb weakness; 3=severe weakness in both limbs/single limb paralysis; 4=paralysis of two or more limbs; 5=death. […] The body weights and disease score were measured by using StudyDirector™ software (version 3.1.399.19). […]

[3] = Brain penetration in rats; type: in vivo; conditions: male, rat, 10 mg/kg oral gavage, 8 hour post-dosing
Procedure: This testing was performed to test the ability of compounds to penetrate the blood-brain-barrier in rats. The testing was performed according to the following procedure: 1) For each compound, take 3 male rats with body weight of 217-228 g, formulate compound using 0.5% HPMC/water suspension at concentration of 1 mg/ml; 2) After fasting overnight, administer compound at 10 mg/kg by oral gavage; 3) Take plasma samples at 1, 2, 4, 8 hours post-dosing; 4) At 8 hour post-dosing, also take brain tissues and cerebrospinal fluid (CSF); 5) Analyze compound concentration in plasma, brain tissue, and CSF using LC-MS/MS method.

[4] = test system: HT22 cells; experiment: Viability of HT22 cells with LPS but without BV2 microglia; type: cell-based; conditions: 1.7 μM, presence or absence of LPS (200 ng/ml, 96 h)
Procedure: (§1) This testing was performed to test the ability of compounds to alleviate the injury of HT22 cells induced by LPS activated BV2 cells. The testing was performed according to the following procedure: 1) Microglia BV2 cells were co-cultured on transwell inserts with HT22hippocampal neurons. BV2 cells were stimulated with LPS (200 ng/ml) for 96 h after treatment with a compound of Formula (II) at 1.7 μM. 2) HT22 cells were pre-treated with a compound of Formula (II) at 1.7 μM for 30 min and subsequently stimulated with LPS (200 ng/ml) for 96 h. 3) BV2 cells were treated using LPS. IL-6, TNF and MCP-1 productions were measured in cell supernatants using CBA assay.
(§2) The protective effects of a compound of Formula (II) on microglial activation-induced neuronal death were evaluated in a BV2 microglia/HT22 neuron co-culture. Following stimulation of BV2 microglia with LPS (200 ng/mL), there was a marked reduction in the viability of co-cultured HT22 cells.

[5] = biological target: T2, JAK1 (Homo sapiens, UniProt P23458); experiment: JAK1 cellular ELISA assay using PBMC cells (IL-6 stimulated STAT3 phosphorylation); type: cell-based; conditions: IL-6 100 ng/ml, 25 min
T2 construct: purchased Reaction Biology Corp, Malvern, PA (contract testing)
Procedure: This testing was performed to test cellular JAK1 activity using the IL-6 stimulated STAT3 phosphorylation assay in PBMC cells. The testing was performed according to the following procedure: 1) Plate PBMC cells to 96-well plate at density of ˜300,000 cell/well; 2) Add different concentrations of test article to wells, maintain in incubator at 37° C. and 5% CO2 for 1 hour; 3) Add IL-6 (final concentration: 100 ng/ml) to stimulate for 25 min in the above incubator; 4) After stimulation, transfer the suspension to 1.5 mL tube, centrifuge at 200 g for 5 min, collect cells, add 100 μL 1× lysate, lyse on ice for 1 hour; 5) Centrifuge at 4° C. and 12000 rpm for 10 min, take the supernatant and analyze according to instructions of the ELISA kit. In this assay, compounds of Formulae (II) and (III) had IC50<300 nM.

[6] = test system: HT22 cells; experiment: HT22 neuronal cell death induced by LPS activated BV2 microglia (transwell co-culture); type: cell-based; conditions: 1.7 μM pre-treatment of BV2, LPS 200 ng/ml, 96 h
Procedure: as §1, §2

T1 sequence (P29597 whole entry): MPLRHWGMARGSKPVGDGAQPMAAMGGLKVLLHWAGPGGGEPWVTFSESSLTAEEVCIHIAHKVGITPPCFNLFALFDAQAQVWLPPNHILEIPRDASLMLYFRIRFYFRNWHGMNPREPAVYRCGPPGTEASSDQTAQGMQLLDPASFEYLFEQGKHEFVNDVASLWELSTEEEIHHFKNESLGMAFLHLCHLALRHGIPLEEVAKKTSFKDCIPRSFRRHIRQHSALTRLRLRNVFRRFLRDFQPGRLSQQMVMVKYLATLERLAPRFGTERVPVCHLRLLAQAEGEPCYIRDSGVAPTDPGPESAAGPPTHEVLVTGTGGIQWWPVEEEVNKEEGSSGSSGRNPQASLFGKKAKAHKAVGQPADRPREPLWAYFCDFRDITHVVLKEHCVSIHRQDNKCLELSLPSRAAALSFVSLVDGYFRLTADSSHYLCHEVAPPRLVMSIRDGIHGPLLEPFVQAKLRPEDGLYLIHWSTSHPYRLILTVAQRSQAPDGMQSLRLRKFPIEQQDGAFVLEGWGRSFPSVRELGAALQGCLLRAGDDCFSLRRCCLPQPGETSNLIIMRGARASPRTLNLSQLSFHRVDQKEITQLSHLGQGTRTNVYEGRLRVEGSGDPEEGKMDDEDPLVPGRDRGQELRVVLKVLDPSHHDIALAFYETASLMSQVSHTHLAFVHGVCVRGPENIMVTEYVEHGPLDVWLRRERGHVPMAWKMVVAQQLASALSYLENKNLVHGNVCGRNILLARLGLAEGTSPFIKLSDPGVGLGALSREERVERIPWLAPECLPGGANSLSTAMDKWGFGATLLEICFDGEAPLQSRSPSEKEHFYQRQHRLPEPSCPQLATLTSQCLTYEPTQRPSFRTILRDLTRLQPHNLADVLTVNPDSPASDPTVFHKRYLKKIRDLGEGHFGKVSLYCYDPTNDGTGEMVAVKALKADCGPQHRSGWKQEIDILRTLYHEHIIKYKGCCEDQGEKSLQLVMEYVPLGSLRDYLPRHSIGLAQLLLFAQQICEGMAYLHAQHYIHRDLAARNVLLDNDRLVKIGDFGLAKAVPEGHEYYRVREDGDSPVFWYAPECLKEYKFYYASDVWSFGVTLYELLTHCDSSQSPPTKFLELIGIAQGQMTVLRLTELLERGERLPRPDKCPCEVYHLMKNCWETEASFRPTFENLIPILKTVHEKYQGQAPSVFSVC
T2 sequence (P23458 whole entry): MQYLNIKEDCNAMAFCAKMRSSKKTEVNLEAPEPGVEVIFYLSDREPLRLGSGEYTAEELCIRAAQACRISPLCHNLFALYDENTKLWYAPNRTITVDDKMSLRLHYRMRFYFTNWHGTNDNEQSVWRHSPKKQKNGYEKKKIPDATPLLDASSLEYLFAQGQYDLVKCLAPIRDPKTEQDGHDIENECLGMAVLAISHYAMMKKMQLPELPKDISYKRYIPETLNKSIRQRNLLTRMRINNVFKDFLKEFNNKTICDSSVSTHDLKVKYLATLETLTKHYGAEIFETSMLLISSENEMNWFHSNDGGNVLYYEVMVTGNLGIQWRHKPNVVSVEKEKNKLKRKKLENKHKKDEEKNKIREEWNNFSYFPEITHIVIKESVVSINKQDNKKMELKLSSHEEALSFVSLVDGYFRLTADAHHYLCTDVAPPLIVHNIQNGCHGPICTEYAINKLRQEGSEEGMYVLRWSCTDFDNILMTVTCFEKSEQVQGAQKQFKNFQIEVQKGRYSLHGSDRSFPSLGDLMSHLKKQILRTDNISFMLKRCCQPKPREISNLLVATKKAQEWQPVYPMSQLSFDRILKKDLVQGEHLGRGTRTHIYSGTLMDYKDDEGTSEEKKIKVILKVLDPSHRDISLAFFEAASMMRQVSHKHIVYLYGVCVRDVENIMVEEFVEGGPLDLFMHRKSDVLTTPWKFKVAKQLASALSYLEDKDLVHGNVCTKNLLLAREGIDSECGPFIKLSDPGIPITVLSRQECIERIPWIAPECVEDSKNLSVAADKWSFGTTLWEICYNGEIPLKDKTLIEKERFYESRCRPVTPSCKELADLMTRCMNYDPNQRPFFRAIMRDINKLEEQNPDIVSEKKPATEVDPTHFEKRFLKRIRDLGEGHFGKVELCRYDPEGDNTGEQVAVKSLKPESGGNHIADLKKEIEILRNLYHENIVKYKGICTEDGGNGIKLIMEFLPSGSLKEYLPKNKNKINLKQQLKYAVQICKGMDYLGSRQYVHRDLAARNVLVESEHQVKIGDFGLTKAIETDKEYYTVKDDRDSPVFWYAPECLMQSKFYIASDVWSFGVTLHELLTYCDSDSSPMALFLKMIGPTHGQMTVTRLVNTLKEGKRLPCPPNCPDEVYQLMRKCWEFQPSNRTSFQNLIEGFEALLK

With `Cc1nc2cnc3ccoc3c2n1[C@H]1CC[C@H](CC#N)OC1` [Formula (II)] the IC50 [1] was less than 100 nM, the “Disease Activity Index (DAI)” value ([2]; 30 mg/kg BID oral gavage from Day 10, vs vehicle, Days 10-26) was “reduced disease activity; also recorded: lower DAI” and the Body weight loss ([2]; 30 mg/kg BID oral gavage, mice with EAE) was “significantly reduced body weight loss”. The Kp at 8 h ([3]; CSF/plasma, read-out: CSF (ng/ml)/ Plasma (ng/ml)) was greater than 0.15, the Kp at 8 h ([3]; brain/plasma, read-out: Brain (ng/ml)/ Plasma (ng/ml)) was greater than 0.4 and the “Viability of HT22 cells” value [4] was “did not affect the viability”. For the same molecule, the IC50 [5] was less than 300 nM and the “Toxicity to HT22 cells (neuronal cell death) from LPS stimulation of BV2 microglia” value [6] was “significantly reduced toxicity to HT22 cells; also recorded: reduced HT22 neuronal cell death”.
